What was measured:
[1] = test system: F. lateritium and E. armeniacae; conditions: reported by Carter et al.; cited from earlier work
E. lata = assay: Grapevine bioassays in the presence of benomyl: E. lata colonization; assay type: cell-based, Eutypa lata; conditions: 26° C., 10 days; for E. lata colonization: treatment E. lata alone
Description: Bioassays were also completed to evaluate the tolerance of the BR F. lateritium strain and E. lata to benomyl when applied to grapevine segments. Benomyl concentrations tested included 0, 10, 100 and 1000 μg/ml at 50 μl aliquots per segment. Bioassays were inoculated with 20 μl aliquots of broth from 4 to 5 day old shake flask cultures of BR F. lateritium and E. lata. The F. lateritium shake flask cultures yielded approximately 4.5×10^5 cells/ml. Segments were inoculated first with benomyl and then with E. lata and BR F. lateritium. All inoculations were completed within one hour in a laminar flow hood. These bioassays were incubated at 26° C. for 10 days.
After incubation, segments were removed from the water agar, split in half and surface disinfected for ½ hour in a 2.5% sodium hypochlorite solution. The split segments were plated on PDA and monitored for E. lata presence after 5 days. All bioassays were performed in triplicate. Positive and negative controls were performed for each bioassay. Mean percent infection levels and standard errors about the mean were calculated for each treatment.

**Q.** With `CCCCNC(=O)n1c(NC(=O)OC)nc2ccccc21` [benomyl, 1-(butylcarbomyl)-2-benzimidazole carbamate] as the molecule, how does the “differential sensitivities of F. lateritium and E. armeniacae to benomyl” value [1] read?
**A.** approximately 10 fold

**Q.** And the “benomyl concentration applied to the segments at which E. lata did not colonize” value (E. lata; grapevine segments)?
**A.** exceeded 100 μg/ml

**Q.** And the E. lata colonization (E. lata; benomyl 10 μg/ml)?
**A.** 100%

**Q.** What about the E. lata colonization (E. lata; benomyl 100 μg/ml) of the same molecule?
**A.** 90%

**Q.** What about the E. lata colonization (E. lata; benomyl 1000 μg/ml) of the same molecule?
**A.** 0%
